Several values for one entry are separate records, joined by “and”; a condition that tells them apart may be missing. Identical values can stand only once. Entries after “also recorded” stand apart in the source; their conditions may differ. Like-named read-outs stand apart in the source and are kept apart here.

For data set [1], the target named is T1, 31-O-desmethylimmunomycin O-methyltransferase (DIMT) (Streptomyces hygroscopicus, UniProt Q9KID5).
T1 sequence (Q9KID5 1-260): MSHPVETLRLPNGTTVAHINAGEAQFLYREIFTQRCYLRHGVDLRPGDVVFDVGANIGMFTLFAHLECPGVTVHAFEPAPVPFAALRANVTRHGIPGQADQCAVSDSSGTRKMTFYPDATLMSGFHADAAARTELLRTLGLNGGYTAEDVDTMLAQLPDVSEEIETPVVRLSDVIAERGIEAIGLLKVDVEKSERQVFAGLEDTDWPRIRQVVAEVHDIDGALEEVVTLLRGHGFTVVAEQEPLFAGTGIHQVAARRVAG
Put plainly: S-adenosyl-L-methionine: 31-O-desmethylimmunomycin O-methyltransferase (DIMT) assay. The method, then:
The assay was carried out in 1 ml. mixture containing 0.025 mM 31-desmethylimmunomycin, 1 mM MgSO4 and different quantities of the enzyme source in 50 mM phosphate buffer, pH 7.5. Reaction was initiated by the addition of 1 nmole of ^14 C-SAM (S-adenosyl-L-[methyl-^14 C] methionine with the specific activity of 46 mCi/mmole. Incubation of the complete mixture was carried out at 34° C. for 20 minutes and the reaction was terminated by the addition of ethyl acetate. Product of the reaction was extracted with 2 ml of ethyl acetate and 1 ml of the extract was used for TLC and HPLC analysis. For the analysis of the radioactive reaction product (immunomycin), the ethyl acetate extract was spiked with the standard immunomycin and subjected to the TLC with a plate having plastic support. The plastic sheet was developed in chloroform:methanol (9:1) and area showing standard immunomycin under UV-light was cut and the radioactivity in the cut-strip was measured. The amount of the product formed was calculated from the measured radioactivity. For the HPLC analysis of the product of the enzyme reaction, several enzymatic reaction mixtures were pooled and the extract was subjected to the TLC analysis as above. The area on the silica gel plate showing the band having an Rf value identical with the standard immunomycin was scraped and eluted with ethyl acetate. The ethyl acetate extract was washed with water, dried under nitrogen and the residue was subjected to the HPLC analysis on Partisil 5-ODS-3 column with acetonitrile:water:phosphoric acid (65:35:0.1) as the eluting solvent. One milliliter fractions were collected and a portion of each fraction was examined for the radioactivity.
Examination of the optimal temperature, pH and metal requirement of the DIMT activity was carried out on the enzyme preparation obtained from DEAE-Sepharose column. For kinetic analysis, a preparation which had been purified through a second MonoQ column chromatography was utilized.

Data set [2] has as its system Splenic T-cells stimulated with ionomycin + PMA. Put plainly: T-cell proliferation assay (ionomycin plus PMA induced T-cell stimulation). Format: cell-based, mouse. The note with it: for Inhibition of T-cell activation (result in words): T-cell proliferation assay. How it is done: Cells were pelleted by centrifugation at 1500 rpm for 8 minutes. Contaminating red cells were removed by treating the pellet with ammonium chloride lysing buffer (GIBCO) for 2 minutes at 4° C. Cold medium was added and cells were again centrifuged at 1500 rpm for 8 minutes. T lymphocytes were then isolated by separation of the cell suspension on nylon wool columns as follows: Nylon wool columns were prepared by packing approximately 4 grams of washed and dried nylon wool into 20 ml plastic syringes. The columns were sterilized by autoclaving at 250° F. for 30 minutes. Nylon wool columns were wetted with warm (37° C.) culture medium and rinsed with the same medium. Washed spleen cells resuspended in warm medium were slowly applied to the nylon wool. The columns were then incubated in an upright position at 37° C. for 1 hour. Non-adherent T lymphocytes were eluted from the columns with warm culture medium and the cell suspensions were spun as above.
The cell suspension was immediately distributed into 96 well flat-bottom microculture plates (Costar) at 200 μl/well. […] The proliferation of T lymphocytes was assessed by measurement of tritiated thymidine incorporation. After 44 hours of culturing, the cells were pulse-labelled with 2 μCi/well of tritiated thymidine (NEN, Cambridge, Mass.). After another 4 hours of incubation, cultures were harvested on glass fiber filters using a multiple sample harvester. Radioactivity of filter discs corresponding to individual wells was measured by standard liquid scintillation counting methods (Betacounter). Mean counts per minute of replicate wells were calculated and the results expressed as percent inhibition of tritiated thymidine uptake (proliferation) as follows: [formula]

For data set [3] the following is noted: reputed; EPO Publication No. 0184162; cited from earlier work.
Substrate in data set [4]: [H][C@@]1(/C=C(\C)[C@@]2([H])OC(=O)[C@]3([H])CCCCN3C(=O)C(=O)[C@]3(O)O[C@]([H])([C@@H](OC)C[C@@H](C)C/C(C)=C/[C@@H](CC)C(=O)C[C@H](O)[C@H]2C)[C@@H](OC)C[C@H]3C)CC[C@@H](O)[C@H](O)C1
Put plainly: purified protein, by the assay type. The following applies: other: 31-O-desmethylimmunomycin as variable substrate, 40 uM SAM; Lineweaver-Burk; pH 7.5.

Substrate in data set [5]: C[S+](CC[C@H](N)C(=O)[O-])C[C@H]1O[C@@H](n2cnc3c(N)ncnc32)[C@H](O)[C@@H]1O
Nature of the data set: purified protein, by the assay type. The following applies: other: SAM as variable substrate, 25 umM 31-O-desmethylimmunomycin as cosubstrate; pH 7.5.

Where [6] appears, read: Mus musculus, T-cell, HPLC purified samples, evaluated in the same set of experiments, read-out: IC50 (biological activity).

Regarding `CC[C@@H]1/C=C(\C)C[C@H](C)C[C@H](OC)[C@H]2O[C@@](O)(C(=O)C(=O)N3CCCC[C@H]3C(=O)O[C@H](/C(C)=C/[C@@H]3CC[C@@H](O)[C@H](O)C3)[C@H](C)[C@@H](O)CC1=O)[C@H](C)C[C@@H]2OC` [31-O-desmethylimmunomycin], the “apparent Vmax” value in data set [1] (31-O-desmethylimmunomycin as variable substrate, 40 uM SAM, Lineweaver-Burk) was found to be 45.5 nmol/h/mg.
For the molecule `CC[C@@H]1C=C2COC1(O)C[C@H](O)[C@@H](C)[C@@H](/C(C)=C/[C@@H]1CC[C@@H](O)[C@H](O)C1)OC(=O)[C@@H]1CCCCN1C(=O)C(=O)[C@]1(O)O[C@H]([C@@H](OC)C[C@@H](C)C2)[C@@H](OC)C[C@H]1C` [Compound I], the inhibition at 0.0025 µM in data set [2] (Mus musculus, T-cell, 2.5 nM, tritiated thymidine uptake, harvest at 48 hours, read-out: Percent of Inhibition) was found to be 0%. Further, the inhibition at 0.0049 µM in data set [2] (Mus musculus, T-cell, 4.9 nM, tritiated thymidine uptake, harvest at 48 hours, read-out: Percent of Inhibition) worked out at 0%. Also, the inhibition at 0.0099 µM in data set [2] (Mus musculus, T-cell, 9.9 nM, tritiated thymidine uptake, harvest at 48 hours, read-out: Percent of Inhibition) was found to be 39%. Moreover, the inhibition at 0.0197 µM in data set [2] (Mus musculus, T-cell, 19.7 nM, tritiated thymidine uptake, harvest at 48 hours, read-out: Percent of Inhibition) stood at 65%. Besides, the inhibition at 0.0394 µM in data set [2] (Mus musculus, T-cell, 39.4 nM, tritiated thymidine uptake, harvest at 48 hours, read-out: Percent of Inhibition) came out at 89%. The inhibition at 0.0788 µM in data set [2] (Mus musculus, T-cell, 78.8 nM, tritiated thymidine uptake, harvest at 48 hours, read-out: Percent of Inhibition) stood at 95%. Moreover, in data set [2] (Mus musculus, T-cell, 157.6 nM, tritiated thymidine uptake, harvest at 48 hours, read-out: Percent of Inhibition), the inhibition at 0.1576 µM turned out to be 98%. Further, in data set [2] (Mus musculus, T-cell, 315.2 nM, tritiated thymidine uptake, harvest at 48 hours, read-out: Percent of Inhibition), the inhibition at 0.3152 µM was determined as 98%. For the same molecule, the IC50 is roughly 11 nM in data set [2] (setting [6]); 0.0115 µg/mL and 14.5 nM in data set [2] (Mus musculus, T-cell proliferation, Example 4, read-out: IC50). Moreover, the “Inhibition of T-cell activation (result in words)” value in data set [2] is “positive inhibition of T-cell activation; also recorded: antagonist activity versus the FK-506 immunosuppressive activity”. For the same molecule, the “Effect of IL2 on inhibition of T-cell proliferation” value in data set [2] (addition of 50 units/ml of recombinant IL2 at the initiation of culture) is “reversed”.
In the case of `O=C(O)CN(CCN(CC(=O)O)CC(=O)O)CC(=O)O` [EDTA], the “Inhibition of DIMT activity” value is “major inhibition” in data set [1] and “completely inhibited” in data set [1] (crude extract).
Regarding `CC[C@@H]1/C=C(\C)C[C@H](C)C[C@H](OC)[C@H]2O[C@@](O)(C(=O)C(=O)N3CCCC[C@H]3C(=O)O[C@H](/C(C)=C/[C@@H]3CC[C@@H](O)[C@H](OC)C3)[C@H](C)[C@@H](O)CC1=O)[C@H](C)C[C@@H]2OC` [FR-900520, 17-Ethyl-1,14-dihydroxy-12-[2-(4-hydroxy-3-methoxycyclohexyl)-1-methylvinyl]-23-25-dimethoxy-13,19,21,27-tetramethyl-11,28-dioxa-4-azatricyclo [22.3.1.0^4,9]octacos-18-ene-2,3,10,16-tetraone], in data set [2] (setting [6]), the IC50 was roughly 1 nM.
`Nc1ncnc2c1ncn2[C@@H]1O[C@H](CSCC[C@H](N)C(=O)O)[C@@H](O)[C@H]1O` [S-adenosyl-homocysteine (SAH), S-adenosyl-homocysteine]: the “Inhibition of DIMT activity” value in data set [1] is “major inhibition”.
As for `C=CC[C@@H]1/C=C(\C)C[C@H](C)C[C@H](OC)[C@H]2O[C@@](O)(C(=O)C(=O)N3CCCC[C@H]3C(=O)O[C@H](/C(C)=C/[C@@H]3CC[C@@H](O)[C@H](OC)C3)[C@H](C)[C@@H](O)CC1=O)[C@H](C)C[C@@H]2OC` [FR900506, reference compound], in data set [3], the “Effectiveness relative to cyclosporin” value is listed as 100 times. Moreover, the inhibition at 0.01 µg/mL in data set [2] (Mus musculus, T-cell, 10 ng/ml, standard) amounted to 99%.
On to `Nc1ncnc2c1ncn2[C@@H]1O[C@H](C[C@@H](N)CC[C@H](N)C(=O)O)[C@@H](O)[C@H]1O` [sinefungin], for which the “Inhibition of DIMT activity” value in data set [1] was “major inhibition”.
Consider `N.N.O=S(=O)(O)O` [ammonium sulfate], for which the “Inhibition of DIMT activity” value in data set [1] (crude extract) was “inhibited”.
With `CC[C@@H]1C=C2COC1(O)C[C@H](O)[C@@H](C)[C@@H](/C(C)=C/[C@@H]1CC[C@@H](O)[C@H](OC)C1)OC(=O)[C@@H]1CCCCN1C(=O)C(=O)[C@]1(O)O[C@H]([C@@H](OC)C[C@@H](C)C2)[C@@H](OC)C[C@H]1C` [Compound II], the IC50 in data set [2] (setting [6]) is roughly 6 nM. Also, in data set [2], the “Inhibition of T-cell activation (result in words)” value was “positive inhibition of T-cell activation; also recorded: positive results”.

B1: 31-O-desmethylimmunomycin O-methyltransferase (DIMT) (Streptomyces hygroscopicus subsp. ascomyceticus) (protein)
chain: T1 sequence (Q9KID5 1-260)
Take B1: the Km came to 11 µM in data set [4] and 12.5 µM in data set [5]. Moreover, in data set [5], the Vmax turned out to be 100 nmol/h/mg.

In general, inhibition refers to the percentage by which the read-out fell short of the control. In general, IC50 refers to the concentration that gives 50% inhibition. As a reminder, the Km is the concentration of substrate that gives half-maximal velocity. Usually Vmax stands for the rate approached at saturating substrate.

The record behind these values is patent US5198358A, “Microorganism for producing C-31 desmethyl FR-900520 cyclic hemiketal immunosuppressant agent” (Merck & Co., Inc., priority 1991, dated 1993).
